Experimental data reported in the supplement of paper PMC10307832.

How the values were obtained:
Experiment in all cases: relative viability (nuclei count vs DMSO), 5 days (fraction); higher = more cells survive
CUDC-101 + Tozasertib = compound: C#Cc1cccc(Nc2ncnc3cc(OC)c(OCCCCCCC(=O)NO)cc23)c1 [CUDC-101] + Cc1cc(Nc2cc(N3CCN(C)CC3)nc(Sc3ccc(NC(=O)C4CC4)cc3)n2)n[nH]1 [Tozasertib] (partner 0.1 µM)
Method in brief: (§1)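 Nuclei were stained with Hoechst during a one-step fixation (final 0.05% Triton X-100, 1% formaldehyde, 1 ug/ml Hoechst) carried out 5 days after dosing, then counted on 4× images. The cells, lung cancer lines in 1536-well plates, had been dosed by pin tool the day after seeding with one drug alone or a fixed anchor-drug dose plus five library-drug doses (not always all listed) in √10 steps. Relative viability is the nuclei count in treated wells divided by that in vehicle wells, and each value is the median of duplicate plates.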

NVP-TAE684 + Olaparib = compound: COc1cc(N2CCC(N3CCN(C)CC3)CC2)ccc1Nc1ncc(Cl)c(Nc2ccccc2S(=O)(=O)C(C)C)n1 [NVP-TAE684] + O=C(c1cc(Cc2n[nH]c(=O)c3ccccc23)ccc1F)N1CCN(C(=O)C2CC2)CC1 [Olaparib] (partner 8 µM)
Method in brief: as §1

Vandetanib + Pictilisib = compound: COc1cc2/c(=N/c3ccc(Br)cc3F)nc[nH]c2cc1OCC1CCN(C)CC1 [Vandetanib] + CS(=O)(=O)N1CCN(Cc2cc3nc(-c4cccc5[nH]ncc45)nc(N4CCOCC4)c3s2)CC1 [Pictilisib] (partner 1 µM)
Method in brief: as §1

CUDC-101 + Linsitinib = compound: C#Cc1cccc(Nc2ncnc3cc(OC)c(OCCCCCCC(=O)NO)cc23)c1 [CUDC-101] + C[C@]1(O)C[C@@H](c2nc(-c3ccc4ccc(-c5ccccc5)nc4c3)c3c(N)nccn32)C1 [Linsitinib] (partner 1 µM)
Method in brief: as §1

Row | Cell Line | relative viability (CUDC-101 + Tozasertib; first compound 0.01 µM) | relative viability (CUDC-101 + Tozasertib; first compound 0.03162 µM) | relative viability (CUDC-101 + Tozasertib; first compound 0.1 µM) | relative viability (CUDC-101 + Tozasertib; first compound 0.3162 µM) | relative viability (CUDC-101 + Tozasertib; first compound 1 µM) | relative viability (NVP-TAE684 + Olaparib; first compound 0.2 µM) | relative viability (NVP-TAE684 + Olaparib; first compound 0.6325 µM) | relative viability (NVP-TAE684 + Olaparib; first compound 2 µM) | relative viability (Vandetanib + Pictilisib; first compound 0.02 µM) | relative viability (Vandetanib + Pictilisib; first compound 0.06325 µM) | relative viability (Vandetanib + Pictilisib; first compound 0.2 µM) | relative viability (Vandetanib + Pictilisib; first compound 0.6325 µM) | relative viability (Vandetanib + Pictilisib; first compound 2 µM) | relative viability (CUDC-101 + Linsitinib; first compound 0.01 µM) | relative viability (CUDC-101 + Linsitinib; first compound 0.03162 µM) | relative viability (CUDC-101 + Linsitinib; first compound 0.1 µM) | relative viability (CUDC-101 + Linsitinib; first compound 0.3162 µM) | relative viability (CUDC-101 + Linsitinib; first compound 1 µM)
1 | NCI-H2170 | 0.632 | 0.698 | 0.753 | 0.62 | 0.345 | 0.583 | 0.58 | 0.518 | 0.328 | 0.288 | 0.267 | 0.28 | 0.31 |  |  |  |  | 
2 | NCI-H1648 | 0.64 |  | 0.636 | 0.362 | 0.221 | 0.45 | 0.863 | 0.287 |  |  |  |  |  |  |  |  |  | 
3 | NCI-H1623 | 0.406 | 0.379 | 0.389 | 0.356 | 0.272 |  |  |  |  |  |  |  |  |  |  |  |  | 
4 | A549 |  |  |  |  |  | 0.308 | 0.387 | 0.3 | 0.499 | 0.419 | 0.614 | 0.473 | 0.412 | 0.634 | 0.444 | 0.537 | 0.731 | 0.487
5 | Calu-6 |  |  |  |  |  | 0.657 | 0.519 | 0.357 | 0.938 | 0.9 | 0.881 | 0.807 | 0.907 | 0.989 | 0.897 | 1.04 | 1.01 | 0.869
6 | NCI-H1703 |  |  |  |  |  | 0.368 | 0.413 | 0.14 | 0.244 | 0.217 | 0.212 | 0.211 | 0.231 |  | 0.559 | 0.636 | 1.15 | 0.745
7 | NCI-H1299 |  |  |  |  |  | 0.979 | 1.02 | 0.682 | 0.788 | 0.677 | 0.906 | 0.674 | 0.604 | 0.905 | 0.99 | 0.936 | 0.994 | 0.973
8 | ChaGo-K-1 | 0.216 | 0.214 | 0.246 | 0.238 | 0.208 | 0.422 | 0.418 | 0.345 | 0.632 | 0.713 | 0.619 | 0.87 | 0.28 |  |  |  |  | 
9 | NCI-H1650 | 0.398 | 0.318 | 0.305 | 0.383 | 0.267 | 0.757 | 0.758 | 0.825 | 0.561 | 0.511 |  | 0.555 | 0.515 |  |  |  |  | 
10 | SW 900 | 0.471 | 0.633 | 0.566 | 0.526 | 0.519 | 0.885 | 0.953 | 0.68 |  |  |  |  |  |  |  |  |  | 
11 | NCI-H522 | 0.602 | 0.53 | 0.539 | 0.528 | 0.366 | 0.642 | 0.664 | 0.662 |  |  |  |  |  |  |  |  |  | 
12 | IA-LM |  |  |  |  |  | 0.745 | 0.799 | 0.638 | 0.349 |  | 0.345 | 0.405 | 0.331 | 0.676 | 0.665 | 0.365 | 0.544 | 0.548
13 | NCI-H1792 |  |  |  |  |  | 0.52 | 0.37 | 0.248 | 0.273 | 0.288 | 0.303 | 0.318 | 0.235 | 0.558 | 0.407 | 0.54 | 0.547 | 0.454
